Legend:
Assay type in all cases: cell-based
[1] = test system: Gram-positive cocci; assay: Experiment Example 3: 2.5% maltose or sucrose, specimen culture, Gram smear; conditions: 2.5% saccharide, 1.0% yeast extract, 1.6% xanthan gum, pH 6.2, candle jar, 37° C.
Experimental: (§1) • (1) The preparation of the compositions: Maltose and sucrose were used respectively to prepare the following composition according to the methods mentioned above: • A. 2.5% maltose, 1.0% yeast extract, 1.6% xanthan gum, pH adjusted to 6.2; • B. 2.5% sucrose, 1.0 yeast extract, 1.6% xanthan gum, pH adjusted to 6.2; • (2) The preparation of the test tubes: Compositions as prepared above were filled into the test tubes, with each tube containing 5 ml, sterilized, and kept until use for experiment. • (3) Specimen suspension: Vaginal secretion was taken from one of the patients suffering from typical bacterial vaginosis with a cotton swab, then the swab was washed in 2 ml sterilized Trypcase-soy Broth immediately, and thus the specimen suspension was ready. […] Then the tubes were placed in a candle jar and cultivated at 37° C. After 24 hours and 48 hours' culture, culture samples were taken respectively from each of the tubes, then the Gram smears of the samples were observed and the pH values of culture samples were tested.

[2] = test system: Gram-positive bacilli; assay: as above; conditions: 2.5% saccharide, 1.0% yeast extract, 1.6% xanthan gum, pH 6.2, candle jar, 37° C.
Experimental: as §1

[3] = test system: vaginal secretion specimen of a patient suffering from typical bacterial vaginosis; assay: Experiment Example 2: pH of culture samples (production of acids); conditions: for pH values in the tube compared with the other tubes: 10% saccharide tube, after 24 or 48 hours culture; for pH, 24 hours-culture / pH, 48 hours-culture: 10.0% saccharide, 1.0% yeast extract, 1.6% xanthan gum (dextrin 0.5%, starch none), pH 6.2, candle jar, 37° C.
Excerpt: • (1)The preparation of the compositions: Different saccharides were used respectively to prepare the following compositions according to the methods mentioned above: glucose, fructose, galactose, mannose, maltose, sucrose, lactose, lactulose, mycose, cellobiose, melibiose, melitose, malto-oligosaccharide, isomaltooligosaccharide and fructooligosaccharide, dextrin, starch, and glycogen: • A. 5% glucose, 1.0% yeast extract, 1.6% xanthan gum, pH adjusted to 6.2; • B. 5% fructose, 1.0% yeast extract, 1.6% xanthan gum, pH adjusted to 6.2; • C. 5% galactose, 1.0% yeast extract, 1.6% xanthan gum, pH adjusted to 6.2; • D. 5% mannose, 1.0% yeast extract, 1.6% xanthan gum, pH adjusted to 6.2; • E. 10.0% maltose, 1.0% yeast extract, 1.6% xanthan gum, pH adjusted to 6.2; • F. 10.0% sucrose, 1.0% yeast extract, 1.6% xanthan gum, pH adjusted to 6.2; • G. 10.0% lactose, 1.0% yeast extract, 1.6% xanthan gum, pH adjusted to 6.2; • H. 10.0% lactulose, 1.0% yeast extract, 1.6% xanthan gum, pH adjusted to 6.2; • I. 10.0% cellobiose, 1.0% yeast extract, 1.6% xanthan gum, pH adjusted to 6.2; • J. 10.0% mycose, 1.0% yeast extract, 1.6% xanthan gum, pH adjusted to 6.2; • K. 10.0% melibiose, 1.0% yeast extract, 1.6% xanthan gum, pH adjusted to 6.2; • L. 10.0% melitose, 1.0% yeast extract, 1.6% xanthan gum, pH adjusted to 6.2; • M. 10.0% maltooligosaccharide, 1.0% yeast extract, 1.6% xanthan gum, pH adjusted to 6.2; • N. 10.0% isomaltooligosaccharide, 1.0% yeast extract, 1.6% xanthan gum, pH adjusted to 6.2; • O. 10.0% fructooligosaccharide, 1.0% yeast extract, 1.6% xanthan gum, pH adjusted to 6.2; • P. 10.0% dextrin, 1.0% yeast extract, 0.5% xanthan gum, pH adjusted to 6.2; • Q. 10.0% starch, 1.0% yeast extract, pH adjusted to 6.2; • R. 10.0% glycogen, 1.0% yeast extract, 1.6% xanthan gum, pH adjusted to 6.2. • (2)The preparation of the test tubes: The compositions prepared above were filled into test tubes, with each tube containing 5 ml, sterilized, and kept until use for experiment. • (3) Specimen suspension: Vaginal secretion was taken from one of the patients suffering from typical bacterial vagmosis with a cotton swab, then the swab was washed in 2 ml sterilized Trypcase-soy Broth immediately, and thus the specimen suspension was ready. […] Then the tubes were placed in a candle jar and cultivated at 37° C. After 24 hours and 48 hours' culture, culture samples were taken respectively from each of the tubes, then the Gram smears of the samples were observed and the pH values of culture samples were tested. […] Meanwhile the pH values in most of the composition tubes decreased to different levels. […] And maltose and sucrose exert better effect in promoting the growth of Gram-positive bacilli and the production of acids than that of the other kinds of oligosaccharides.

[4] = test system: vaginal secretion specimen of a patient suffering from typical bacterial vaginosis; assay: Experimental Example 1: pH of culture samples (production of acids); conditions: 10.0% sucrose, 1.0% yeast extract, 1.6% xanthan gum, pH 5.0, anaerobic, 37° C.
Experimental: • (1) The preparation of the composition: Sucrose was used to prepare the following composition according to the method mentioned above: sucrose 10.0% (W/V), yeast extract 1.0% (W/V), Xanthan gum 1.6% (W/V), pH 5.0; then filled the composition into the tubes after sterilization, with each tube containing 5 ml, and pre-reduced for use. • (2) Specimen suspension: Vaginal secretion was taken from one of the patients suffering from typical bacterial vaginosis with a cotton swab, then the swab was washed in 2 ml sterilized Trypcase-soy Broth immediately, and thus the specimen suspension was ready. […] The tubes were placed in an incubator for cultivation, at 37° C., anaerobically. Then, culture samples were taken from the tubes at 10 hours and 24 hours later respectively. The Gram smears of the samples were observed and the pH values of the samples were measured.

SMILES | Bacteria G + c (Gram-positive cocci), 24 hours-culture [1] | Bacteria G + c (Gram-positive cocci), 48 hours-culture [1] | Bacteria G + b (Gram-positive bacilli), 24 hours-culture [2] | Bacteria G + b (Gram-positive bacilli), 48 hours-culture [2] | pH values in the tube compared with the other tubes [3] | pH, 24 hours-culture [3] | pH, 48 hours-culture [3] | pH, 10 hours-culture ([4]; 10 hours) | pH, 24 hours-culture ([4]; 24 hours)
OC[C@H]1O[C@H](O[C@H]2[C@H](O)[C@@H](O)[C@H](O)O[C@@H]2CO)[C@H](O)[C@@H](O)[C@@H]1O [Maltose, maltose] | G + c, − (No or less than one bacterium per field of version under oil-immersion lens) | G + c, + (1-9 bacteria per field of vision under oil-immersion lens) | G + b, + (1-9 bacteria per field of vision under oil-immersion lens) | G + b, +++ (About 100 bacteria or more per field vision under oil-immersion lens, even uncountable) | lower than that of the other tubes | 4.6-48 | 4.4-4.6 | – | –
OC[C@H]1O[C@@](CO)(O[C@H]2O[C@H](CO)[C@@H](O)[C@H](O)[C@H]2O)[C@@H](O)[C@@H]1O [Sucrose, sucrose] | G + c, + (1-9 bacteria per field of vision under oil-immersion lens) | G + c, + (1-9 bacteria per field of vision under oil-immersion lens) | G + b, + (1-9 bacteria per field of vision under oil-immersion lens) | G + b, + (1-9 bacteria per field of vision under oil-immersion lens) | lower than that of the other tubes | 4.8-5.1 | 4.6-4.8 | 5.0 | 4.0
